# Results as given in US6340702B1 (priority 1996, dated 2002).
# Values joined by “and” are separate entries in the source; they are usually repeats but may differ in a detail not shown here. Equal entries are not always repeated. Structures can show the parent of a compound that is named as a salt. Where two headings read alike, the source gives them in different places.
# Columns and labels:
# [1] = tested on: mouse-acclimated influenza virus A/PR/8/34 strain; parameters: species or system mice (BALB/C); settings: in vivo
# [2] = tested on: mouse-acclimated influenza virus A/PR/8/34 strain; parameters: species or system mice (BALB/C); settings: in vivo; remark: listed apart in the source
# [3] = tested on: Influenza virus strain A/Yamagata/32189(H1N1); assay: microbe, parasite or virus in culture; assay type: cell-based
# [4] = tested on: mouse-acclimated influenza virus A/PR/8/34 strain; parameters: species or system mice (BALB/C); settings: in vivo; remark: listed apart in the source
# [5] = target: crude influenza virus sialidase (Influenza A virus, UniProt P03468); settings: Table 5; absorbance at 415 nm reduced by 50%, pH 6.5, 37° C., 20 minutes
# Sequence of crude influenza virus sialidase (P03468 whole entry, looked up): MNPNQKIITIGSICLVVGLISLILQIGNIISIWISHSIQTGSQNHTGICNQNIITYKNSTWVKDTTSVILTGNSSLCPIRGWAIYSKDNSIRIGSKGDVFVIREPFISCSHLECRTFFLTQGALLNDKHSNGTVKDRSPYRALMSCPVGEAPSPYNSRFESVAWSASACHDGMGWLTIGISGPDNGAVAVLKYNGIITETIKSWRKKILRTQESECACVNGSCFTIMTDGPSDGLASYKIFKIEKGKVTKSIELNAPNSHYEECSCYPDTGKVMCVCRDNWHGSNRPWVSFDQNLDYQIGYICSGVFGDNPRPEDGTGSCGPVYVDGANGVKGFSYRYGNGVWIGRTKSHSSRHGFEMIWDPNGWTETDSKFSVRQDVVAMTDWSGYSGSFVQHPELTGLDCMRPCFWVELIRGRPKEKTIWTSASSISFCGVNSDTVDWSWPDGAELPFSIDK
# Experimental: In this experiment, a sample of influenza virus strain A/PR/8/34(H1N1) was dissolved by means of a surfactant, after which the virus membrane fraction was purified by centrifugation.
# An enzyme solution was first prepared such that the final enzyme activity was 0.001 1 units/ml (1 unit corresponds to that amount of enzyme which hydrolyzes 1 μmole of substrate in 1 minute). Also prepared beforehand were aqueous solutions of test compound in various concentrations; an aqueous solution of the substrate to a concentration of 33 μg/ml, and a 20 mM 2-(N-morpholino)-ethanesulfonic acid buffer (pH 6.5) containing 50 mM calcium chloride. These solutions were combined to prepare a mixture having a final volume of 150 μl, and which was then left to stand at 37° C. for 20 minutes.
smiles,measurement,setting,value
"CC(=O)NC1C(NC(=N)N)C=C(C(=O)O)O[C@H]1C(O)C(O)CO (stereo partly drawn) [Compound A, reference compound]","number of surviving mice divided by the number of test mice, Day 3",[1],3/7
same,"number of surviving mice divided by the number of test mice, Day 10",[1],dead
same,"number of surviving mice divided by the number of test mice, Day 10",[2],dead
same,IC50,"[3]; unidentified influenza virus, H1N1, MDCK, 40 h, Table 3, plaque number reduced to 50%, MDCK cells",4.7 nM
same,IC50,"[3]; unidentified influenza virus, H1N1, MDCK, 40 h, Table 4, plaque number reduced to 50%, MDCK cells",11 nM
same,"number of surviving mice divided by the number of test mice, Day 8",[4],one
"CCCCCCCCCCCCCCOC(=O)C1=CC(NC(=N)N)C(NC(C)=O)[C@H](C(O)C(O)CO)O1.O=C(O)C(F)(F)F (stereo partly drawn) [Example 1′, Myristyl 5-acetamido-2,3,4,5-tetradeoxy-4-guanidino-D-glycero-D-galacto-non-2-enopyranosoate trifluoroacetic acid salt]",influenza infection therapeutic effects compared with Compound A,[1],superior to those of Compound A
same,"number of surviving mice divided by the number of test mice, Day 3",[1],5/8
same,"number of surviving mice divided by the number of test mice, Day 6",[1],8/8
same,influenza infection therapeutic effects compared with Compound A,[2],superior to those of Compound A
same,"number of surviving mice divided by the number of test mice, Day 8",[2],4/12
"CCCCCCOC(=O)C1=CC(NC(=N)N)C(NC(C)=O)[C@H](C(O)C(O)CO)O1.O=C(O)C(F)(F)F (stereo partly drawn) [Example 2′, Hexyl 5-acetamido-2,3,4,5-tetradeoxy-4-guanidino-D-glycero-D-galacto-non-2-enopyranosoate trifluoroacetic acid salt]",influenza infection therapeutic effects compared with Compound A,[1],superior to those of Compound A
same,"number of surviving mice divided by the number of test mice, Day 3",[1],2/8
same,"number of surviving mice divided by the number of test mice, Day 6",[1],8/8
same,"number of surviving mice divided by the number of test mice, Day 10",[1]; trifluoroacetic acid salt,1 and 1/8
"CCCCCCCCCCCCCC(=O)OCC(O)C(O)[C@@H]1OC(C(=O)O)=CC(NC(=N)N)C1NC(C)=O.O=C(O)C(F)(F)F (stereo partly drawn) [Example 3′, 5-Acetamido-2,3,4,5-tetradeoxy-4-guanidino-9-O-myristoyl-D-glvcero-D-galacto-non-2-enopyranosoic acid trifluoroacetic acid salt]","number of surviving mice divided by the number of test mice, Day 6",[4],10/10
same,"number of surviving mice divided by the number of test mice, Day 8",[4],10/10
"CCCCCC(=O)OCC(O)C(O)[C@@H]1OC(C(=O)O)=CC(NC(=N)N)C1NC(C)=O.O=C(O)C(F)(F)F (stereo partly drawn) [Example 4′, 5-Acetamido-2,3,4,5-tetradeoxy-4-guanidino-9-O-hexanoyl-D-glycero-D-galacto-non-2-enopyranosoic acid trifluoroacetic acid salt]","number of surviving mice divided by the number of test mice, Day 6",[4],10/10
same,"number of surviving mice divided by the number of test mice, Day 8",[4],6/10
"CCCCCCCC(=O)OCC(O)C(O)[C@@H]1OC(C(=O)O)=CC(NC(=N)N)C1NC(C)=O.O=C(O)C(F)(F)F (stereo partly drawn) [Example 5′, 5-Acetamido-2,3,4,5-tetradeoxy-4-guanidino-9-O-octanoyl-D-glycero-D-galacto-non-2-enopyranosoic acid trifluoroacetic acid salt]","number of surviving mice divided by the number of test mice, Day 6",[4],11/11
same,"number of surviving mice divided by the number of test mice, Day 8",[4],10/11
"CCCCCCCCCC(=O)OCC(O)C(O)[C@@H]1OC(C(=O)O)=CC(NC(=N)N)C1NC(C)=O.O=C(O)C(F)(F)F (stereo partly drawn) [Example 6′, 5-Acetamido-2,3,4,5-tetradeoxy-4-guanidino-9-O-decanoyl-D-glycero-D-galacto-non-2-enopyranosoic acid trifluoroacetic acid salt]","number of surviving mice divided by the number of test mice, Day 6",[4],11/11
same,"number of surviving mice divided by the number of test mice, Day 8",[4],10/11
"CCCCCCCCCCCCCCCC(=O)OCC(O)C(O)[C@@H]1OC(C(=O)O)=CC(NC(=N)N)C1NC(C)=O.O=C(O)C(F)(F)F (stereo partly drawn) [Example 7′, 5-Acetamido-2,3,4,5-tetradeoxy-4-guanidino-9-O-palmitoyl-D-glycero-D-galacto-non-2-enopyranosoic acid trifluoroacetic acid salt]","number of surviving mice divided by the number of test mice, Day 6",[4],10/10
same,"number of surviving mice divided by the number of test mice, Day 8",[4],3/10
"CCCCCCCCCCCC(=O)OCC(O)C(O)[C@@H]1OC(C(=O)O)=CC(NC(=N)N)C1NC(C)=O.O=C(O)C(F)(F)F (stereo partly drawn) [Example 8′, 5-Acetamido-2,3,4,5-tetradeoxy-4-guanidino-9-O-dodecanoyl-D-glycero-D-galacto-non-2-enopyranosoic acid trifluoroacetic acid salt]","number of surviving mice divided by the number of test mice, Day 6",[4],11/11
same,"number of surviving mice divided by the number of test mice, Day 8",[4],2/11
"CCCCCCCCCCCCCCCCCC(=O)OCC(O)C(O)[C@@H]1OC(C(=O)O)=CC(NC(=N)N)C1NC(C)=O.O=C(O)C(F)(F)F (stereo partly drawn) [Example 9′, 5-Acetamido-2,3,4,5-tetradeoxy-4-guanidino-9-O-octadecanoyl-D-glycero-D-galacto-non-2-enopyranosoic acid trifluoroacetic acid salt]","number of surviving mice divided by the number of test mice, Day 6",[4],10/10
same,"number of surviving mice divided by the number of test mice, Day 8",[4],4/10
"CCCCCCCCCCCCCCCCOC(=O)C1=CC(NC(=N)N)C(NC(C)=O)[C@H](C(O)C(O)CO)O1.O=C(O)C(F)(F)F (stereo partly drawn) [Example 10′, Cetyl 5-acetamido-2,3,4,5-tetradeoxy-4-guanidino-D-glycero-D-galacto-non-2-enopyranosoate trifluoroacetic acid salt]",influenza infection therapeutic effects compared with Compound A,[2],superior to those of Compound A
same,"number of surviving mice divided by the number of test mice, Day 8",[2],10/12
"CCCCCCCCCCCCCCCCCCOC(=O)C1=CC(NC(=N)N)C(NC(C)=O)[C@H](C(O)C(O)CO)O1.O=C(O)C(F)(F)F (stereo partly drawn) [Example 11′, Stearyl 5-acetamido-2,3,4,5-tetradeoxy-4-guanidino-D-glycero-D-galacto-non-2-enopyranosoate trifluoroacetic acid salt]",influenza infection therapeutic effects compared with Compound A,[2],superior to those of Compound A
same,"number of surviving mice divided by the number of test mice, Day 8",[2],11/11
"CO[C@@H]([C@@H]1OC(C(=O)O)=C[C@H](N=C(N)N)[C@H]1NC(C)=O)[C@H](O)CO [Example 28, 5-Acetamido-4-guanidino-2,3,4,5,7-pentadeoxy-7-methoxy-D-glycero-D-galacto-non-2-enopyranosoic acid trifluoroacetic acid salt]",IC50,[3]; read-out: IC50,1.7 nM
"CCO[C@@H]([C@@H]1OC(C(=O)O)=C[C@H](N=C(N)N)[C@H]1NC(C)=O)[C@H](O)CO [Example 30, 5-Acetamido-4-guanidino-2,3,4,5,7-pentadeoxy-7-ethoxy-D-glycero-D-galacto-non-2-enoic acid trifluoroacetic acid salt]",IC50,[5],7 nM
same,IC50,[3]; read-out: IC50,0.8 nM
